Here are results for four molecules from ChEMBL document CHEMBL4184334, “From Cancer to Pain Target by Automated Selectivity Inversion of a Clinical Candidate” (J Med Chem, 2018).

The source made the active and inactive calls. The rule behind the calls is not given here.

Series [1] has as its target Proto-oncogene tyrosine-protein kinase receptor Ret (Homo sapiens) (UniProt P07949). Nature of the series: Inhibition of DNA-tagged human partial length RET expressed in bacterial expression system at 100 nM by qPCR method.
Series [2] addresses BDNF/NT-3 growth factors receptor (Homo sapiens) (UniProt Q16620). Kind of series: Inhibition of DNA-tagged human partial length TrkB expressed in mammalian expression system at 100 nM by qPCR method.
Series [3] concerns the target NT-3 growth factor receptor (Homo sapiens) (UniProt Q16288). Kind of series: Inhibition of DNA-tagged human partial length TrkC expressed in mammalian expression system at 100 nM by qPCR method.
Series [4] addresses Platelet-derived growth factor receptor beta (Homo sapiens) (UniProt P09619). Kind of series: Inhibition of DNA-tagged human partial length PDGFRB expressed in mammalian expression system at 100 nM by qPCR method. Background: Real-time PCR tracks product formation cycle by cycle.
The target in the next series is T1, Aurora kinase A (Homo sapiens, UniProt O14965).
T1 sequence (O14965 whole entry): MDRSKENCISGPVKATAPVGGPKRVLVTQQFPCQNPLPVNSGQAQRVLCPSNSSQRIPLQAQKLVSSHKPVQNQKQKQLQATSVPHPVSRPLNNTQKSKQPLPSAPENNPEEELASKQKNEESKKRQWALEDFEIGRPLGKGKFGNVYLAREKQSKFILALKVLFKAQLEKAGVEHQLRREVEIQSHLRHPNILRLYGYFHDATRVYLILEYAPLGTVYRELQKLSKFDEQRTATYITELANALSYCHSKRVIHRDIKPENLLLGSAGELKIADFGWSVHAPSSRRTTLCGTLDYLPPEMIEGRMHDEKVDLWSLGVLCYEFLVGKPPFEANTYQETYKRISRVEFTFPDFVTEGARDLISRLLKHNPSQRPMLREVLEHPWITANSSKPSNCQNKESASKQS
Nature of the series: Inhibition of DNA-tagged human partial length AURKA expressed in mammalian expression system at 100 nM by qPCR method. The settings on record: 0.1 µM.

Series [5] has as its target Mast/stem cell growth factor receptor Kit (Homo sapiens) (UniProt P10721). Nature of the series: Inhibition of DNA-tagged human partial length KIT expressed in bacterial expression system at 100 nM by qPCR method.
Series [6] deals with High affinity nerve growth factor receptor (Homo sapiens) (UniProt P04629). Kind of series: Inhibition of DNA-tagged human partial length TrkA expressed in mammalian expression system assessed as remaining activity at 100 nM by qPCR method.
The target of series [7] is Tyrosine-protein kinase JAK2 (Homo sapiens, UniProt O60674). Kind of series: Inhibition of DNA-tagged human partial length JAK2 JH1 domain-catalytic expressed in mammalian expression system at 100 nM by qPCR method. The following applies: 0.1 µM.
In series [8] the target is T2, Tyrosine-protein kinase JAK3 (Homo sapiens) (UniProt P52333).
T2 sequence (whole entry): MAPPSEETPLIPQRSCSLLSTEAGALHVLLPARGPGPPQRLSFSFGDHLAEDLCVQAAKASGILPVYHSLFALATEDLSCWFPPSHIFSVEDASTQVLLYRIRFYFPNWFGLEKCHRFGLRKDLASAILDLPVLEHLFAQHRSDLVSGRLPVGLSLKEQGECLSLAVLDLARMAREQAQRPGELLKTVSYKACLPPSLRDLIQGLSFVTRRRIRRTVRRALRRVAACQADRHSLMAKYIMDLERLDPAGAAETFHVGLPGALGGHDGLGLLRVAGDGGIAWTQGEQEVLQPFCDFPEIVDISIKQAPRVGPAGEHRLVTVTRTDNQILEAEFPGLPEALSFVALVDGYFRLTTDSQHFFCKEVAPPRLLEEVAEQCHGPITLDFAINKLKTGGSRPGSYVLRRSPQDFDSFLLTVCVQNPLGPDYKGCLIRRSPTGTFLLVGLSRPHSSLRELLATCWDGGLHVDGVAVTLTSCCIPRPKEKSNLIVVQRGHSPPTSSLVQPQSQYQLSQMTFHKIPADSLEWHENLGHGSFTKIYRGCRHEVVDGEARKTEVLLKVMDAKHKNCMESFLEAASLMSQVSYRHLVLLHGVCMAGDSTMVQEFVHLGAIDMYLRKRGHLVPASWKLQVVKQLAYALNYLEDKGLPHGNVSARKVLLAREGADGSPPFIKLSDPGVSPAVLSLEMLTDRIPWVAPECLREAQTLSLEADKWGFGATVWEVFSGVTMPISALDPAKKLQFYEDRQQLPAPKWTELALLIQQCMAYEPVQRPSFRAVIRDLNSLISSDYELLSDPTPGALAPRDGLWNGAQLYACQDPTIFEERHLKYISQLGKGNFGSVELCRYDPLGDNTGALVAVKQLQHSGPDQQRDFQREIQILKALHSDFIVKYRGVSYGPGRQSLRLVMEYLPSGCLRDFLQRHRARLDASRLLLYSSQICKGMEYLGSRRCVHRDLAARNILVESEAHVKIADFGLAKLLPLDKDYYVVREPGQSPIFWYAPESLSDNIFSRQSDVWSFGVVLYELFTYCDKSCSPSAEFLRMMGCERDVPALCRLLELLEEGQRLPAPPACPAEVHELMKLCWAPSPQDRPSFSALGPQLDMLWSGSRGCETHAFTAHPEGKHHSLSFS
Kind of series: Inhibition of DNA-tagged human partial length JAK3 JH1 domain-catalytic expressed in mammalian expression system at 100 nM by qPCR method.

The target of series [9] is Tyrosine-protein kinase ABL1 (Homo sapiens, UniProt P00519, T315I). Nature of the series: Inhibition of DNA-tagged human phosphorylated partial length ABL1 T315I mutant expressed in mammalian expression system at 100 nM by qPCR method. The following applies: 0.1 µM.
The target of series [10] is Tyrosine-protein kinase ABL1 (Homo sapiens, UniProt P00519). Nature of the series: Inhibition of DNA-tagged human nonphosphorylated partial length ABL1 expressed in mammalian expression system at 100 nM by qPCR method. The settings on record: 0.1 µM.
The species named for a further series is Homo sapiens. Kind of series: Selectivity ratio of Kd for DNA-tagged human partial length AURKA to Kd for DNA-tagged human partial length TrkA.

Chain of BDNF/NT-3 growth factors receptor (Homo sapiens) (Q16620 32-822 limits assumed): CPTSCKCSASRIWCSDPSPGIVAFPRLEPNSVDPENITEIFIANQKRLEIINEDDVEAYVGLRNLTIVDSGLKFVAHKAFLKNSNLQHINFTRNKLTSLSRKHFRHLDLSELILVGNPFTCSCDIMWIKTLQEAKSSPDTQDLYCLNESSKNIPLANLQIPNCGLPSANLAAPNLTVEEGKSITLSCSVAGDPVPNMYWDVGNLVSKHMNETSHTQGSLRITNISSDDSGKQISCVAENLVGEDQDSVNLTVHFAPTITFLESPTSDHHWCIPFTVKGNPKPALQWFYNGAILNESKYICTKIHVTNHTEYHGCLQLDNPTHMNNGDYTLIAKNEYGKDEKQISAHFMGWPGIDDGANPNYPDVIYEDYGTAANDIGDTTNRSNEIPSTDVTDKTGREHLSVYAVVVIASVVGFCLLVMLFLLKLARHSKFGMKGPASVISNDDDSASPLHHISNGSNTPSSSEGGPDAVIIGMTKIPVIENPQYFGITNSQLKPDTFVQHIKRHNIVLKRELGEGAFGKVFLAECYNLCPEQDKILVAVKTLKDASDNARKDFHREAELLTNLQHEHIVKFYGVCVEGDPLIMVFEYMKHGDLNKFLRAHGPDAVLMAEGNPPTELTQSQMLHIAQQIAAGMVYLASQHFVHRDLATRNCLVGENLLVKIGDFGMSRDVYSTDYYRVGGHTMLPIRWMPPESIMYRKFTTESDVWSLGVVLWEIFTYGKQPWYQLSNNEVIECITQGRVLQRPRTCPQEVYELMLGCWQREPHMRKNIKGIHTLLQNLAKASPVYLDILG
Chain of Proto-oncogene tyrosine-protein kinase receptor Ret (Homo sapiens) (P07949 whole entry): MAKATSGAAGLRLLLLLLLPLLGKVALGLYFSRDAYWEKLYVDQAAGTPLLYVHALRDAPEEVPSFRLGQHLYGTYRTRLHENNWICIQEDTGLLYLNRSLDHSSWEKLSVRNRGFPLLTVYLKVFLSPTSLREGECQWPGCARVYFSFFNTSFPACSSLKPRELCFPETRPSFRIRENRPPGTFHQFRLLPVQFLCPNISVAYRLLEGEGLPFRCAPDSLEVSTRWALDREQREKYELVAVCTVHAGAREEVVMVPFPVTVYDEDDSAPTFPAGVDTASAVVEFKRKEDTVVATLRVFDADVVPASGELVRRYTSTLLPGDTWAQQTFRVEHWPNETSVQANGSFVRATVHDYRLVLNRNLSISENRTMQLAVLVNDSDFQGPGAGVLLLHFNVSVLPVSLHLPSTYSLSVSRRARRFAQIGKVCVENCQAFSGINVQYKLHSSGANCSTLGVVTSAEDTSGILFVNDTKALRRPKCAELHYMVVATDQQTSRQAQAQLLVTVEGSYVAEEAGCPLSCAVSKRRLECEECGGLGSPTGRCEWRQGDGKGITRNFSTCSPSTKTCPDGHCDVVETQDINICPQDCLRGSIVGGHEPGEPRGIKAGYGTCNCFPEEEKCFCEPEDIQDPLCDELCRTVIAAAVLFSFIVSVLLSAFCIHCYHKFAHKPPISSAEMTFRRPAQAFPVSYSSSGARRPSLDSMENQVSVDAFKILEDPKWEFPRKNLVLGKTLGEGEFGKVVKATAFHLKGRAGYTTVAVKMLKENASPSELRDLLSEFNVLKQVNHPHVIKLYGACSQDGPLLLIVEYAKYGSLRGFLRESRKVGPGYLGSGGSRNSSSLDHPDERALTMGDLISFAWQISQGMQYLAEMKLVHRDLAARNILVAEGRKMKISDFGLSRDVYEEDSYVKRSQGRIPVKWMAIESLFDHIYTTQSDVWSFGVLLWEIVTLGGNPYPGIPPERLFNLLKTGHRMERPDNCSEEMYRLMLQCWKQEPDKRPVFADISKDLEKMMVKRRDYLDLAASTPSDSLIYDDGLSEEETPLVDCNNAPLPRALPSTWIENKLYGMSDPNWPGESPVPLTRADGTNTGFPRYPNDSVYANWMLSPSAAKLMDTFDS
Chain of NT-3 growth factor receptor (Homo sapiens) (Q16288 32-839 limits assumed): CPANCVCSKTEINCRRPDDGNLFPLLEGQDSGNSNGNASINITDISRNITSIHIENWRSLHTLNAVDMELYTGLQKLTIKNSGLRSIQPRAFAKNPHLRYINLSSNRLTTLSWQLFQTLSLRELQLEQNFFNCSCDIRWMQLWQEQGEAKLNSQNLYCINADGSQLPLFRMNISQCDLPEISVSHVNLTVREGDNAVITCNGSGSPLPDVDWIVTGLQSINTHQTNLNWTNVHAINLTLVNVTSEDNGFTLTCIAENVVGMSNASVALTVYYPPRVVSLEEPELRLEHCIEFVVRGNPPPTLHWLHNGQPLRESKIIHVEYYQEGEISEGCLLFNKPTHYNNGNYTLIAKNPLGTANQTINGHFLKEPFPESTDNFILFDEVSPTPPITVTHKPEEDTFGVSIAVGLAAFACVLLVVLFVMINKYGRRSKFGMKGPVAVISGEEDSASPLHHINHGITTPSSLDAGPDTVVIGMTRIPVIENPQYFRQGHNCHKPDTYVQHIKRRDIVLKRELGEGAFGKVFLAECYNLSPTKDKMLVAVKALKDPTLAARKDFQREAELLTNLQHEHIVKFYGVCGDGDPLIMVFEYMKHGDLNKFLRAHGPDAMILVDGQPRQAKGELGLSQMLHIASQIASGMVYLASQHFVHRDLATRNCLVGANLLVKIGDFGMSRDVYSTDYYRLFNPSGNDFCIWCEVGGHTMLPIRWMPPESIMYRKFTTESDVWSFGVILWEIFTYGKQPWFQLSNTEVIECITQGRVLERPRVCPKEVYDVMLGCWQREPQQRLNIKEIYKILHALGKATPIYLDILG
Chain of Platelet-derived growth factor receptor beta (Homo sapiens) (P09619 whole entry): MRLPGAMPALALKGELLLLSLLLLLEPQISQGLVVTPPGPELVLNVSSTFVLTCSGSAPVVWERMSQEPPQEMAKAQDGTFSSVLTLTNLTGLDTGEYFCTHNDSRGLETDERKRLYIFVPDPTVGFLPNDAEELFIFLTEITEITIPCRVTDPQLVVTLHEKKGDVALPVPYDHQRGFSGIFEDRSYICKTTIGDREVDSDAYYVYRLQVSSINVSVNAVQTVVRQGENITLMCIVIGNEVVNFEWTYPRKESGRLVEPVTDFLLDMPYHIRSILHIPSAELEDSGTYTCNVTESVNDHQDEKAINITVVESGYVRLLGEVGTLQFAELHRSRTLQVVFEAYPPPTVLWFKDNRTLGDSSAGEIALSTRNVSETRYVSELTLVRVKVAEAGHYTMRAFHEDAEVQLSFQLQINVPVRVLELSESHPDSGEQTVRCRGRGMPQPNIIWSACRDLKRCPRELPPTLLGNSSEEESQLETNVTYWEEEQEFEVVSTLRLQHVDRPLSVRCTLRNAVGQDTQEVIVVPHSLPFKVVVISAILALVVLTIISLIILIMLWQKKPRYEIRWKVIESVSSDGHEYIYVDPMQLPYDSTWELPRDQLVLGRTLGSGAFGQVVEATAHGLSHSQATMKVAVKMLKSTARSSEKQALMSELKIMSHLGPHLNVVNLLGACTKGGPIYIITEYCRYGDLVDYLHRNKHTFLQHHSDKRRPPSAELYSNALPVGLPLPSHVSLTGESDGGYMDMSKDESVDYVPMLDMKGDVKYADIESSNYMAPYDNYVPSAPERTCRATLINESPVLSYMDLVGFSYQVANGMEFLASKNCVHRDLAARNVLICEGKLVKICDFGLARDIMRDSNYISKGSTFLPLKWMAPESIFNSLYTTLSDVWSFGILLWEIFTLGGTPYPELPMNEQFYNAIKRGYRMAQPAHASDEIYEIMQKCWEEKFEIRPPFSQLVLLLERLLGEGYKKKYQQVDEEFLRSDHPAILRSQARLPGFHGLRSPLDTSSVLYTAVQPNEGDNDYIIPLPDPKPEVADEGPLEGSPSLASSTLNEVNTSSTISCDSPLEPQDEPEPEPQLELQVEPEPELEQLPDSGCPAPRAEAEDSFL
Chain of High affinity nerve growth factor receptor (Homo sapiens) (P04629 33-796 limits assumed): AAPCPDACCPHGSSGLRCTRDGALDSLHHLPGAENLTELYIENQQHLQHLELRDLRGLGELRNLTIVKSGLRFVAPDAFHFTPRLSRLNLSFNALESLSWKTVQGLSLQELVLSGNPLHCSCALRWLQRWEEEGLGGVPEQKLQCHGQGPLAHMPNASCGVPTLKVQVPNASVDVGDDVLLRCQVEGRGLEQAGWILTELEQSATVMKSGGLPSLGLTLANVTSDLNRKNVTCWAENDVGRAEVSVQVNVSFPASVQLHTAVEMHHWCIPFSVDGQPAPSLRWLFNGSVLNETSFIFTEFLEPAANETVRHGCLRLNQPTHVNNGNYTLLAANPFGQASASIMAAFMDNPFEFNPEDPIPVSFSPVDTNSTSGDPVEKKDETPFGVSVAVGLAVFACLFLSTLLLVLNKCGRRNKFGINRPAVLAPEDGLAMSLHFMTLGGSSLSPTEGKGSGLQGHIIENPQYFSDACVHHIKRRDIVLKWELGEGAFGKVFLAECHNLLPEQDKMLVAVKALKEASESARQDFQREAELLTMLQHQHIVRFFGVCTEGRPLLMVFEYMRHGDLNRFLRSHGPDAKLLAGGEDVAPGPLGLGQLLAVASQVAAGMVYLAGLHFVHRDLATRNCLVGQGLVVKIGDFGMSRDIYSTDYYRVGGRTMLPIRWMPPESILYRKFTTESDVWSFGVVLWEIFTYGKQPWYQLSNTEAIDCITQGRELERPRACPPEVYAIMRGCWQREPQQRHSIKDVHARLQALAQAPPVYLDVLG

On to `Cc1cc(Nc2cc(N3CCN(C)CC3)nc(Sc3ccc(NC(=O)C4CC4)cc3)n2)n[nH]1`, for which, in series [1], the inhibition result is “Active”.

On to `Cc1ccc(CSc2nc(Nc3cc(C)[nH]n3)cc(N3CCN(C)CC3)n2)cc1`, for which the inhibition entry in [2], in [3] and in series [4] was “inactive” in each case.

For the molecule `CN1CCN(c2cc(Nc3cc(C(C)(C)C)[nH]n3)nc(Sc3ccccc3)n2)CC1`, the “inhibition (INH)” value at Aurora kinase A is “Not Active”.

Consider `CN1CCN(c2cc(Nc3cc(-c4cccc(F)c4)[nH]n3)nc(Sc3ccccc3)n2)CC1`, for which the inhibition result in [2], in series [3], in series [5], in [4] and in [1] was “Active” each time. Besides, the Activity in [6] was under 1%. The “inhibition (INH)” value in [7], in [9] and in series [10] was “Not Active” throughout. Also, the inhibition result in series [8] was “inactive”. The Selectivity ratio in the series filed under Homo sapiens worked out at 1000.
